Measured values from patent US20070249670A1, “Glycogen Phosphorylase Inhibitor Compounds and Pharmaceutical Compositions Thereof” (SMITHKLINE BEECHAM CORPORATION, priority 2004, published 2007).
Where a name gives a salt, the structure may show the parent alone.

Target: T1, human liver glycogen phosphorylase a (HLGPa) (Homo sapiens, UniProt P06737)
T1 construct: creating a full-length cDNA fused at the 5′ end to codons for methionine-glycine-alanine-histidine; 6xHis tag (leader Met-Gly-Ala-His6-Gly-Gly) (N); made in house; host or cells: E. coli (bacterial expression plasmid pTXK1007LTev)
T1 sequence (P06737 2-847 limits assumed): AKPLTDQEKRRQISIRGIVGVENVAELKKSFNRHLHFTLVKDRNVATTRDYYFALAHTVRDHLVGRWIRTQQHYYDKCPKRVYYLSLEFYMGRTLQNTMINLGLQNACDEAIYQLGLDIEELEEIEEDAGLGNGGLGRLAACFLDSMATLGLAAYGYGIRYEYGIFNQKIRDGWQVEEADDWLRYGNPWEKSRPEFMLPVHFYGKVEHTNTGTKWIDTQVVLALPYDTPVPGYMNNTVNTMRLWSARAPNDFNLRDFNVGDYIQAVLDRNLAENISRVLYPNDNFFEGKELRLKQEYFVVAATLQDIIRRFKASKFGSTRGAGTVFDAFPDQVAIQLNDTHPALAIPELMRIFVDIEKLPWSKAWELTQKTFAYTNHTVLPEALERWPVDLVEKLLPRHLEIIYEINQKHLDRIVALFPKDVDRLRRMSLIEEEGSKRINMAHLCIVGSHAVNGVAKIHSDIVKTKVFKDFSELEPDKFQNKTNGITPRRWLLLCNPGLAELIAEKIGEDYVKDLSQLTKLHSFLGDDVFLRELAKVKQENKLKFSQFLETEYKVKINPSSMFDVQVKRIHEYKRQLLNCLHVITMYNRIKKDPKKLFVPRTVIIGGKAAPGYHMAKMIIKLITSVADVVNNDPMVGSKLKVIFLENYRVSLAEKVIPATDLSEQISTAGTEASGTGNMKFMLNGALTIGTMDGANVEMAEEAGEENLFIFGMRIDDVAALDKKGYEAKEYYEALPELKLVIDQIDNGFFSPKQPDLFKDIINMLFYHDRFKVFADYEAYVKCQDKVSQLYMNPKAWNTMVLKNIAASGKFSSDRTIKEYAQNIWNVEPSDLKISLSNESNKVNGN
Assay: Human liver glycogen phosphorylase a enzymatic activity assay (coupled, fluorescent resorufin readout, with and without 10 mM glucose)
Type: biochemical
Settings: human liver glycogen phosphorylase a enzymatic activity assay

| Compound | IC50 |
| --- | --- |
| O=C(Nc1ccccc1Cl)Nc1cc(F)c(F)cc1C(=O)N[C@@H](Cc1c[nH]c2ccccc12)C(=O)O [Example 76, N-[2-({[(2-chlorophenyl)amino]carbonyl}amino)-4,5-difluorobenzoyl]-L-tryptophan trifluoroacetate] | 3.74 µM |
| COc1cc(NC(=O)Nc2ccccc2Cl)c(C(=O)N[C@@H](Cc2c[nH]c3ccccc23)C(=O)O)cc1OC [Example 77, N-[2-({[(2-chlorophenyl)amino]carbonyl}amino)-4,5-dimethoxybenzoyl]-L-tryptophan trifluoroacetate] | 9.05 µM |
| Cc1cccc(C)c1NC(=O)Nc1cc(F)c(F)cc1C(=O)N[C@@H](CC(=O)O)C(=O)O [Example 78, N-[2-({[(2,6-dimethylphenyl)amino]carbonyl}amino)-4,5-difluorobenzoyl]-L-aspartic acid] | 9.11 µM |
| Cc1cccc(C)c1NC(=O)Nc1cc(F)c(F)cc1C(=O)N[C@@H](CC(C)C)C(=O)O [Example 79, N-[2-({[(2,6-dimethylphenyl)amino]carbonyl}amino)-4,5-difluorobenzoyl]-L-leucine] | 18.7 µM |
| CC[C@H](C)[C@H](NC(=O)c1cc(F)c(F)cc1NC(=O)Nc1c(C)cccc1C)C(=O)O [Example 80, N-[2-({[(2,6-dimethylphenyl)amino]carbonyl}amino)-4,5-difluorobenzoyl]-L-isoleucine] | 8.73 µM |
| Cc1cccc(C)c1NC(=O)Nc1cc(F)c(F)cc1C(=O)N[C@@H](Cc1ccccc1)C(=O)O [Example 81, N-[2-({[(2,6-dimethylphenyl)amino]carbonyl}amino)-4,5-difluorobenzoyl]-L-phenylalanine] | 14.7 µM |
| COc1cc(NC(=O)Nc2c(C)cccc2C)c(C(=O)N[C@@H](Cc2c[nH]c3ccccc23)C(=O)O)cc1OC [Example 82, N-[2-({[(2,6-dimethylphenyl)amino]carbonyl}amino)-4,5-dimethoxybenzoyl]-L-tryptophan trifluoroacetate] | 9.41 µM |
| CCc1cccc(CC)c1NC(=O)Nc1ccccc1C(=O)N[C@@H](CC(=O)O)C(=O)O [Example 83, N-[2-({[(2,6-diethylphenyl)amino]carbonyl}amino)benzoyl]-L-aspartic acid] | 34.1 µM |
| Cc1cccc(Cl)c1NC(=O)Nc1cc2ccccc2cc1C(=O)N[C@@H](CC(=O)O)C(=O)O [Example 84, N-[3-({[(2-chloro-6-methylphenyl)amino]carbonyl}amino)-2-naphthoyl]-L-aspartic acid] | 0.39 µM |
| Cc1cccc(Cl)c1NC(=O)Nc1cc2ccccc2cc1C(=O)NCC(=O)O [Example 85, N-[3-({[(2-chloro-6-methylphenyl)amino]carbonyl}amino)-2-naphthoyl]glycine] | 0.57 µM |
| Cc1cccc(Cl)c1NC(=O)Nc1cc2ccccc2cc1C(=O)N[C@@H](CCC(=O)O)C(=O)O [Example 86, N-[3-({[(2-chloro-6-methylphenyl)amino]carbonyl}amino)-2-naphthoyl]-L-glutamic acid] | 0.7 µM |
| Cc1cccc(Cl)c1NC(=O)Nc1ccccc1C(=O)N[C@@H](CC(=O)O)C(=O)O [Example 87, N-[2-({[(2-chloro-6-methylphenyl)amino]carbonyl}amino)benzoyl]-L-aspartic acid] | 24.5 µM |
| Cc1cccc(Cl)c1NC(=O)Nc1cc(Cl)ccc1C(=O)N[C@@H](CC(=O)O)C(=O)O [Example 88, N-[4-chloro-2-({[(2-chloro-6-methylphenyl)amino]carbonyl}amino)benzoyl]-L-aspartic acid] | 5.2 µM |
| Cc1cccc(Cl)c1NC(=O)Nc1ccc(I)cc1C(=O)N[C@@H](CC(=O)O)C(=O)O [Example 89, N-[2-({[(2-chloro-6-methylphenyl)amino]carbonyl}amino)-5-iodobenzoyl]-L-aspartic acid] | 17.4 µM |
| O=C(O)C[C@H](NC(=O)c1cc2ccccc2cc1NC(=O)Nc1ccccc1Br)C(=O)O [Example 90, N-[3-({[(2-bromophenyl)amino]carbonyl}amino)-2-naphthoyl]-L-aspartic acid] | 22.9 µM |
